From the Kinase Knowledgebase extract (Sharma et al. 2016)

Tests used:
CDK2 (human) = CDK2 (human) (UniProt P24941); experiment: Enzyme Assay; settings: concentration not given here
EGFR (human) = EGFR (human) (UniProt P00533); settings: concentration not given here
EGFR (human), sequence (P00533 whole entry, looked up): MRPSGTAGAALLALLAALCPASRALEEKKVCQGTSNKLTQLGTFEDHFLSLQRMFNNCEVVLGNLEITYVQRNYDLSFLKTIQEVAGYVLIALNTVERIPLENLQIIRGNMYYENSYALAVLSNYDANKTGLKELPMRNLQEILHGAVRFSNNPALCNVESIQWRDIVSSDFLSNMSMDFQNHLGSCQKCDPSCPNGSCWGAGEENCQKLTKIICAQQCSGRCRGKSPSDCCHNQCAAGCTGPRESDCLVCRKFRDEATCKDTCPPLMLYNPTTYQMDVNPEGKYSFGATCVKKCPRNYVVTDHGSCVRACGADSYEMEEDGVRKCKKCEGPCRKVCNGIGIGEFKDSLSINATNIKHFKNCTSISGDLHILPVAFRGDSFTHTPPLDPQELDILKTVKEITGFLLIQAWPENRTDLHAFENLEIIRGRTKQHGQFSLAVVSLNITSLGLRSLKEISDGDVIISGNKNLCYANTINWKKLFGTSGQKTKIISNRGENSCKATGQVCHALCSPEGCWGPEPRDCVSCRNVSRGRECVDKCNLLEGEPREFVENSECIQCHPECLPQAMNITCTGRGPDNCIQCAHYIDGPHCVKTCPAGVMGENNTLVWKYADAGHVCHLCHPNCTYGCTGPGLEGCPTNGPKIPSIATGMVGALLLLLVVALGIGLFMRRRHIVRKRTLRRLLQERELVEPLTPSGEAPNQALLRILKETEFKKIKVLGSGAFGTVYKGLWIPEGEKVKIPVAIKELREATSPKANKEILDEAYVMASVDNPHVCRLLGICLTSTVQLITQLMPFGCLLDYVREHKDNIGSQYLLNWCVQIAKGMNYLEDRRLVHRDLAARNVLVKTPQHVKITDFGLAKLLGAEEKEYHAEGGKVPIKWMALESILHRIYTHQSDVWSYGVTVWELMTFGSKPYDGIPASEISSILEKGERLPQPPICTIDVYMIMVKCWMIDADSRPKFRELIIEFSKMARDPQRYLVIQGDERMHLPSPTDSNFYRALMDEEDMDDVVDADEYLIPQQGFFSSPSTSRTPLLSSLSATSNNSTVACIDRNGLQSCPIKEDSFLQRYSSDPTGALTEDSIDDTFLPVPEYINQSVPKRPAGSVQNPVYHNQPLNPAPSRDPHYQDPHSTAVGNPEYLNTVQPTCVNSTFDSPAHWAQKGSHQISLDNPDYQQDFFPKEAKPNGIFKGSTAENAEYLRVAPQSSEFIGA

inhibition (CDK2 (human)) | inhibition (EGFR (human)) | Compound
58% |  | COc1cc2c3c(c4c5ccccc5n(C)c4c2c(OC)c1OC)C(=O)NC3=O
 | 3% | COc1ccc2[nH]c3c4c(OC)c(OC)c(OC)cc4c4c(c3c2c1)C(=O)NC4=O
7% | 27% | COc1ccc(C2=C(c3c[nH]c4ccccc34)C(=O)NC2=O)cc1OC
 | 5% | COc1cc(C2=C(c3c(C)[nH]c4ccccc34)C(=O)NC2=O)cc(OC)c1OC
